Assay results from patent US11186817B2, “Chemically defined cell culture media additive” (IUCF-HYU (INDUSTRY-UNIVERSITY COOPERATION FOUNDATION …, priority 2014, dated 2021).

System: CHO DG44 cell line
Experiment: Effective concentration range of THF: suspension growth of CHO DG44 in HY-CDM media
Format: cell-based, Chinese hamster
Details: HY-CDM
Excerpt: 1. Cell line and media: CHO DG44 cell line was used as a DHFR-deficient cell line. The cell line was passaged 80 times or more and suspension adapted in HY-CDM (in-house) media as chemically defined media. The suspension-adapted cell line was used to evaluate the influence of tetrahydrofolate (THF) and dihydrofolate (DHF) and the growth characteristics in commercial chemically defined media. The HY-CDM media were composed of chemically defined components only. Each HY-CDM medium further included a growth factor. HY-CDM media used in Examples 1, 3, and 4 were free of an animal derived lipid mixture, and HY-CDM media used in Example 2 were supplemented with cod liver oil.
2. Cell suspension culture: The cell line was inoculated at a density of 4×10^5 cells/ml and cultured in an Erlenmeyer flask with a 30 ml/125 ml working volume on an orbital shaker at 120 rpm under humidified conditions at 37° C. and 5% CO2. Before inoculation, the cells were centrifuged at 1,000 rpm (×162 g) for 5 min, the supernatant was discarded, and the remaining cells were dispersed into single cells in the heated medium. The cells were passaged three times to minimize the influence of the remaining medium under the experimental conditions. The subcultured cells were evaluated.
3. Density of live cells: The density of live cells was analyzed using a hemocytometer (Neubauer improved bright-line, Marienfeld, Germany), an inverted microscope (CK30, Olympus, Japan), and trypan blue dye exclusion.
In this example, the effective concentration range of THF inducing the suspension growth of the CHO DG44 cell line in the HY-CDM media was evaluated with varying amounts of THF.
To this end, the CHO DG44 cell line was passaged three time at a THF concentration of 0-480 mg/L, and their maximum cell densities and doubling times were measured.

Q: tetrahydrofolate [THF] was tested. Which “Doubling time, Average” value (THF 0.0016 mg/L) did it give?
A: 24.7 h

Q: What about the “Doubling time, Passage 1” value (THF 0.0016 mg/L) of the same substance?
A: 26.8 h

Q: And the “Doubling time, Passage 2” value (THF 0.0016 mg/L)?
A: 27.2 h

Q: What about the “Doubling time, Passage 3” value (THF 0.0016 mg/L) of the same substance?
A: 20.3 h

Q: What about the “Maximum cell density, Average” value (THF 0.0016 mg/L) of the same substance?
A: 18.9 ×10^5 cells/ml

Q: And the “Maximum cell density, Passage 1” value (THF 0.0016 mg/L)?
A: 19.8 ×10^5 cells/ml

Q: And the “Maximum cell density, Passage 2” value (THF 0.0016 mg/L)?
A: 18.2 ×10^5 cells/ml

Q: And the “Maximum cell density, Passage 3” value (THF 0.0016 mg/L)?
A: 18.8 ×10^5 cells/ml

Q: What about the “Doubling time, Average” value (THF 0.0031 mg/L) of the same substance?
A: 24.9 h

Q: What about the “Doubling time, Passage 1” value (THF 0.0031 mg/L) of the same substance?
A: 27.1 h

Q: And the “Doubling time, Passage 2” value (THF 0.0031 mg/L)?
A: 27.1 h

Q: What about the “Doubling time, Passage 3” value (THF 0.0031 mg/L) of the same substance?
A: 20.6 h

Q: And the “Maximum cell density, Average” value (THF 0.0031 mg/L)?
A: 19.8 ×10^5 cells/ml

Q: What about the “Maximum cell density, Passage 1” value (THF 0.0031 mg/L) of the same substance?
A: 20.6 ×10^5 cells/ml

Q: And the “Maximum cell density, Passage 2” value (THF 0.0031 mg/L)?
A: 18.2 ×10^5 cells/ml

Q: What about the “Maximum cell density, Passage 3” value (THF 0.0031 mg/L) of the same substance?
A: 20.5 ×10^5 cells/ml

Q: And the “Doubling time, Average” value (THF 0.0063 mg/L)?
A: 23.6 h

Q: What about the “Doubling time, Passage 1” value (THF 0.0063 mg/L) of the same substance?
A: 26.4 h

Q: What about the “Doubling time, Passage 2” value (THF 0.0063 mg/L) of the same substance?
A: 24.3 h

Q: And the “Doubling time, Passage 3” value (THF 0.0063 mg/L)?
A: 20.1 h

Q: And the “Maximum cell density, Average” value (THF 0.0063 mg/L)?
A: 21.3 ×10^5 cells/ml

Q: And the “Maximum cell density, Passage 1” value (THF 0.0063 mg/L)?
A: 21.4 ×10^5 cells/ml

Q: What about the “Maximum cell density, Passage 2” value (THF 0.0063 mg/L) of the same substance?
A: 21.2 ×10^5 cells/ml

Q: And the “Maximum cell density, Passage 3” value (THF 0.0063 mg/L)?
A: 21.3 ×10^5 cells/ml

Q: What about the “Doubling time, Average” value (THF 0.0125 mg/L) of the same substance?
A: 23.5 h

Q: What about the “Doubling time, Passage 1” value (THF 0.0125 mg/L) of the same substance?
A: 24.6 h

Q: What about the “Doubling time, Passage 2” value (THF 0.0125 mg/L) of the same substance?
A: 25.5 h

Q: What about the “Doubling time, Passage 3” value (THF 0.0125 mg/L) of the same substance?
A: 20.3 h

Q: What about the “Maximum cell density, Average” value (THF 0.0125 mg/L) of the same substance?
A: 21.5 ×10^5 cells/ml

Q: What about the “Maximum cell density, Passage 1” value (THF 0.0125 mg/L) of the same substance?
A: 23.6 ×10^5 cells/ml

Q: What about the “Maximum cell density, Passage 2” value (THF 0.0125 mg/L) of the same substance?
A: 18.8 ×10^5 cells/ml

Q: And the “Maximum cell density, Passage 3” value (THF 0.0125 mg/L)?
A: 22.0 ×10^5 cells/ml

Q: And the “Doubling time, Average” value (THF 0.0250 mg/L)?
A: 22.5 h

Q: And the “Doubling time, Passage 1” value (THF 0.0250 mg/L)?
A: 25.8 h

Q: What about the “Doubling time, Passage 2” value (THF 0.0250 mg/L) of the same substance?
A: 23.2 h

Q: And the “Doubling time, Passage 3” value (THF 0.0250 mg/L)?
A: 18.6 h

Q: And the “Maximum cell density, Average” value (THF 0.0250 mg/L)?
A: 20.5 ×10^5 cells/ml

Q: What about the “Maximum cell density, Passage 1” value (THF 0.0250 mg/L) of the same substance?
A: 22.4 ×10^5 cells/ml

Q: And the “Maximum cell density, Passage 2” value (THF 0.0250 mg/L)?
A: 18.0 ×10^5 cells/ml

Q: What about the “Maximum cell density, Passage 3” value (THF 0.0250 mg/L) of the same substance?
A: 21.0 ×10^5 cells/ml

Q: And the “Doubling time, Average” value (THF 0.0500 mg/L)?
A: 20.9 h

Q: What about the “Doubling time, Passage 1” value (THF 0.0500 mg/L) of the same substance?
A: 22.8 h

Q: And the “Doubling time, Passage 2” value (THF 0.0500 mg/L)?
A: 21.7 h

Q: What about the “Doubling time, Passage 3” value (THF 0.0500 mg/L) of the same substance?
A: 18.2 h

Q: What about the “Maximum cell density, Average” value (THF 0.0500 mg/L) of the same substance?
A: 20.5 ×10^5 cells/ml

Q: And the “Maximum cell density, Passage 1” value (THF 0.0500 mg/L)?
A: 22.0 ×10^5 cells/ml

Q: And the “Maximum cell density, Passage 2” value (THF 0.0500 mg/L)?
A: 18.5 ×10^5 cells/ml

Q: And the “Maximum cell density, Passage 3” value (THF 0.0500 mg/L)?
A: 21.0 ×10^5 cells/ml

Q: And the “Doubling time, Average” value (THF 0.1000 mg/L)?
A: 21.2 h

Q: What about the “Doubling time, Passage 1” value (THF 0.1000 mg/L) of the same substance?
A: 22.7 h

Q: What about the “Doubling time, Passage 2” value (THF 0.1000 mg/L) of the same substance?
A: 22.7 h

Q: What about the “Doubling time, Passage 3” value (THF 0.1000 mg/L) of the same substance?
A: 18.2 h

Q: What about the “Maximum cell density, Average” value (THF 0.1000 mg/L) of the same substance?
A: 24.8 ×10^5 cells/ml

Q: And the “Maximum cell density, Passage 1” value (THF 0.1000 mg/L)?
A: 27.6 ×10^5 cells/ml

Q: What about the “Maximum cell density, Passage 2” value (THF 0.1000 mg/L) of the same substance?
A: 21.8 ×10^5 cells/ml

Q: And the “Maximum cell density, Passage 3” value (THF 0.1000 mg/L)?
A: 24.9 ×10^5 cells/ml

Q: What about the “Doubling time, Average” value (THF 0.2000 mg/L) of the same substance?
A: 20.8 h

Q: And the “Doubling time, Passage 1” value (THF 0.2000 mg/L)?
A: 22.7 h

Q: What about the “Doubling time, Passage 2” value (THF 0.2000 mg/L) of the same substance?
A: 21.4 h

Q: And the “Doubling time, Passage 3” value (THF 0.2000 mg/L)?
A: 18.3 h

Q: And the “Maximum cell density, Average” value (THF 0.2000 mg/L)?
A: 25.9 ×10^5 cells/ml

Q: And the “Maximum cell density, Passage 1” value (THF 0.2000 mg/L)?
A: 26.6 ×10^5 cells/ml

Q: What about the “Maximum cell density, Passage 2” value (THF 0.2000 mg/L) of the same substance?
A: 25.0 ×10^5 cells/ml

Q: What about the “Maximum cell density, Passage 3” value (THF 0.2000 mg/L) of the same substance?
A: 26.1 ×10^5 cells/ml

Q: And the Cell density increase (THF 0.4 mg/L)?
A: about 56%

Q: What about the “Doubling time, Average” value (THF 0.4000 mg/L) of the same substance?
A: 22.1 h

Q: And the “Doubling time, Passage 1” value (THF 0.4000 mg/L)?
A: 22.7 h
